Laboratory results as given in ChEMBL document CHEMBL1201862, “PubChem BioAssay data set” (2004).
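1) Cells in 96-well plates. 2) Compound, 48 h, 5 concentrations. 3) Linear interpolation between surrounding doses. 4) Unreached endpoint = highest concentration. GI50 marks 50% less growth.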 Active and inactive are the calls of the source. Rule as the data show it: active = GI50 up to about 1.1 µM and inactive = higher.

Columns and labels:
Test in all cases: NCI tumour cell line growth inhibition, 48 h
[1] = system: DLD-1
[2] = system: DMS-114
[3] = system: DMS-273
[4] = system: HOP-18
[5] = system: KM-20L2
[6] = system: M19-MEL
[7] = system: RXF 631
[8] = system: SNB-78
[9] = system: XF498

SMILES	GI50 [1]	GI50 [2]	GI50 [3]	GI50 [4]	GI50 [5]	GI50 [6]	GI50 [7]	GI50 [8]	GI50 [9]
CCOC(=O)C1C(c2ccccc2)=C(c2ccccc2)C(c2ccccc2)=C1c1ccccc1	> 100 µM (inactive)	27.8 µM (inactive)	31.3 µM (inactive)	23.7 µM (inactive)	> 100 µM (inactive)	41.4 µM (inactive)	50.5 µM (inactive)	27.5 µM (inactive)	21.9 µM (inactive)
CN(C)/N=N/c1[nH]cnc1C(N)=O [DACARBAZINE]	56.9 µM (inactive)	71.3 µM (inactive)	12.8 µM (inactive)	15.5 µM (inactive)	53.6 µM (inactive)	64.4 µM (inactive)	54.1 µM (inactive)	63.2 µM (inactive)	21.8 µM (inactive)
Cc1ccc(C(=O)N(C2CCCCC2)C2CCCCC2)cc1/N=N/N(C)C	14.7 µM (inactive)	–	17.1 µM (inactive)	–	–	19.1 µM (inactive)	–	15.8 µM (inactive)	–
O=C(O)CS [THIOGLYCOLIC ACID]	> 100 µM (inactive)	> 100 µM (inactive)	> 100 µM (inactive)	–	> 100 µM (inactive)	> 100 µM (inactive)	–	> 100 µM (inactive)	> 100 µM (inactive)
CCOC(=O)N1c2c(ccn2C)-c2ccn(C)c2N1C(=O)OCC	13.6 µM (inactive)	> 10 µM (inactive)	–	–	14.6 µM (inactive)	26.4 µM (inactive)	18.9 µM (inactive)	–	17 µM (inactive)
Cc1ccc(-c2c(N)nc(NC#N)nc2CCC(=O)Nc2ccccc2[N+](=O)[O-])cc1	> 100 µM (inactive)	> 100 µM (inactive)	> 100 µM (inactive)	> 100 µM (inactive)	> 100 µM (inactive)	> 100 µM (inactive)	–	> 100 µM (inactive)	–
O=C(N[C@H](CO)[C@H](O)c1ccc([N+](=O)[O-])cc1)C(Cl)Cl [CHLORAMPHENICOL]	> 100 µM (inactive)	> 100 µM (inactive)	> 100 µM (inactive)	–	> 100 µM (inactive)	> 100 µM (inactive)	–	–	–
Cc1nc2c(nc1C)C(=O)c1ccccc1C2=O	14.9 µM (inactive)	9.64 µM (inactive)	3.41 µM (inactive)	3.29 µM (inactive)	17.7 µM (inactive)	0.258 µM (active)	11.9 µM (inactive)	26.9 µM (inactive)	–
CCOc1ccc(NC2=NC(=O)C(CC(=O)Nc3ccc(Cl)cc3Cl)S2)cc1 (stereo not drawn)	> 100 µM (inactive)	> 100 µM (inactive)	> 100 µM (inactive)	–	> 100 µM (inactive)	> 100 µM (inactive)	> 100 µM (inactive)	> 100 µM (inactive)	> 100 µM (inactive)
CCOC(=O)N[C@H]1CCc2cc(O)c(OC)c(OC)c2-c2ccc(SC)c(=O)cc21	0.0351 µM (active)	0.0193 µM (active)	0.0149 µM (active)	–	0.0128 µM (active)	0.0189 µM (active)	0.0207 µM (active)	< 0.01 µM (active)	0.0261 µM (active)
O=C(O)CN(c1ccccc1)S(=O)(=O)c1ccc(Cl)cc1	> 100 µM (inactive)	–	> 100 µM (inactive)	> 100 µM (inactive)	> 100 µM (inactive)	> 100 µM (inactive)	> 100 µM (inactive)	–	–
CN(C)CCC(=O)N1C/C(=C\c2ccc(Cl)c(Cl)c2)C(=O)/C(=C/c2ccc(Cl)c(Cl)c2)C1	0.157 µM (active)	0.452 µM (active)	0.15 µM (active)	1.02 µM (active)	0.577 µM (active)	0.427 µM (active)	0.455 µM (active)	0.476 µM (active)	1.12 µM (active)
CCN1C(=O)C/C(=C\C(C)=O)Nc2ccccc21	18.9 µM (inactive)	> 100 µM (inactive)	> 100 µM (inactive)	–	–	> 100 µM (inactive)	–	> 100 µM (inactive)	> 100 µM (inactive)
Cn1c2c(cc(-c3ccccc3)c1=O)COc1ccccc1-2	36.6 µM (inactive)	15.4 µM (inactive)	19.5 µM (inactive)	> 100 µM (inactive)	25.1 µM (inactive)	25.6 µM (inactive)	–	33.7 µM (inactive)	8.04 µM (inactive)
C[C@@H]1O[C@@H](O[C@H]2[C@H](Oc3cc(O)c4c(=O)cc(-c5ccc(O)cc5)oc4c3)O[C@H](CO)[C@@H](O)[C@@H]2O)[C@H](O)[C@H](O)[C@H]1O [RHOIFOLIN]	> 100 µM (inactive)	> 100 µM (inactive)	> 100 µM (inactive)	> 100 µM (inactive)	> 100 µM (inactive)	> 100 µM (inactive)	–	> 100 µM (inactive)	> 100 µM (inactive)
COc1cc2ccc(CC(=O)O)cc2cc1OC	> 100 µM (inactive)	> 100 µM (inactive)	> 100 µM (inactive)	> 100 µM (inactive)	> 100 µM (inactive)	> 100 µM (inactive)	> 100 µM (inactive)	> 100 µM (inactive)	–
CN(C)c1snc2c1c(=O)n(C)c(=O)n2C	> 100 µM (inactive)	> 100 µM (inactive)	> 100 µM (inactive)	> 100 µM (inactive)	> 100 µM (inactive)	> 100 µM (inactive)	> 100 µM (inactive)	–	> 100 µM (inactive)
N=CCCN(CCC=N)c1ccc(/C=C2\CN(NC(=O)c3ccc(Cl)cc3)C(c3ccccc3)=N2)cc1	> 100 µM (inactive)	> 100 µM (inactive)	> 100 µM (inactive)	> 100 µM (inactive)	> 100 µM (inactive)	–	> 100 µM (inactive)	> 100 µM (inactive)	–
CCCCOC(=O)NC(=O)c1cn(CCSCCOC(=O)NCCCCCCNC(=O)OCCSCCn2cc(C(=O)NC(=O)OCCCC)c(=O)[nH]c2=O)c(=O)[nH]c1=O	> 100 µM (inactive)	93.8 µM (inactive)	95.5 µM (inactive)	31.6 µM (inactive)	> 100 µM (inactive)	> 100 µM (inactive)	38.4 µM (inactive)	90.4 µM (inactive)	–
O=C(O)c1ccc(/N=N/c2cc(S(=O)(=O)O)c3cccnc3c2O)cc1	63.4 µM (inactive)	> 100 µM (inactive)	> 100 µM (inactive)	–	> 100 µM (inactive)	> 100 µM (inactive)	–	> 100 µM (inactive)	> 100 µM (inactive)
O=c1c2ccccc2oc2ccccc12.Oc1cccc2cccnc12	1.76 µM (inactive)	1.63 µM (inactive)	1.94 µM (inactive)	–	–	–	–	–	–
O=[N+]([O-])c1cccc(C2=NN(c3ccccc3)C3c4cc(Br)ccc4OCC23)c1 (stereo not drawn)	> 100 µM (inactive)	> 100 µM (inactive)	> 100 µM (inactive)	> 100 µM (inactive)	> 100 µM (inactive)	> 100 µM (inactive)	–	> 100 µM (inactive)	> 100 µM (inactive)
COC(=O)C1=C(O)c2cc(OC)c(OC)c(OC)c2C(c2ccc3c(c2)OCO3)[C@@H]1C(=O)OC (stereo partly drawn)	4.69 µM (inactive)	2.4 µM (inactive)	3.02 µM (inactive)	23.1 µM (inactive)	2.36 µM (inactive)	–	5.82 µM (inactive)	15.1 µM (inactive)	–
O=C(Nc1nc2ncn(CCNCCn3cnc4nc(NC(=O)c5ccccc5)[nH]c(=O)c43)c2c(=O)[nH]1)c1ccccc1	> 100 µM (inactive)	–	> 100 µM (inactive)	> 100 µM (inactive)	> 100 µM (inactive)	> 100 µM (inactive)	–	> 100 µM (inactive)	> 100 µM (inactive)
NC(=O)c1cc(C2OC(CO)C(O)C2O)nn1-c1ccc([N+](=O)[O-])cc1 (stereo not drawn)	> 100 µM (inactive)	> 100 µM (inactive)	> 100 µM (inactive)	> 100 µM (inactive)	> 100 µM (inactive)	–	–	36.7 µM (inactive)	> 100 µM (inactive)
